Read-outs that look alike come from different tables or passages of the source. A value given as a limit tells only on which side of the number the result lay.

Test [1] addresses T1, human CB2 receptors (Homo sapiens, UniProt P34972).
T1 construct: expressed in transfected cells; host or cells: HEK293
In words: human CB2 radioligand binding assay ([3H]CP 55,940 competition). Particulars: HEK293 membranes, 0.5 nM [3H]CP 55,940. The protocol:
(§1) The CB1 and CB2 radioligand binding assays described herein are utilized to ascertain the affinity of compounds of the present application for binding to CB2 relative to CB1 receptors.
HEK293 cells stably expressing human CB2 receptors were grown until a confluent monolayer was formed. Briefly, the cells were harvested and homogenized in TE buffer (50 mM Tris-HCl, 1 mM MgCl2, and 1 mM EDTA) using a polytron for 2×10 second bursts in the presence of protease inhibitors, followed by centrifugation at 45,000×g for 20 minutes. The final membrane pellet was re-homogenized in storage buffer (50 mM Tris-HCl, 1 mM MgCl2, and 1 mM EDTA and 10% sucrose) and frozen at −78° C. until used. Saturation binding reactions were initiated by the addition of membrane preparation (protein concentration of 5 μg/well for human CB2) into wells of a deep well plate containing [^3H]CP 55,940 (120 Ci/mmol, a nonselective CB agonist commercially available from Tocris) in assay buffer (50 mM Tris, 2.5 mM EDTA, 5 mM MgCl2, and 0.5 mg/mL fatty acid free BSA, pH 7.4). After 90 min incubation at 30° C., binding reaction was terminated by the addition of 300 μL/well of cold assay buffer followed by rapid vacuum filtration through a UniFilter-96 GF/C filter plates (pre-soaked in 1 mg/mL BSA for 2 hours). The bound activity was counted in a TopCount using Microscint-20. Saturation experiments were conducted with twelve concentrations of [^3H]CP 55,940 ranging from 0.01 to 8 nM. Competition experiments were conducted with 0.5 nM [^3H]CP 55,940 and five concentrations (0.01 nM to 10 μM) of displacing ligands. The addition of 10 μM unlabeled CP 55,940 (Tocris, Ellisville, Mo.) was used to assess nonspecific binding.

In test [2] the target is T2, rat CB2 (Rattus norvegicus, UniProt Q9QZN9).
T2 sequence (Q9QZN9 1-360): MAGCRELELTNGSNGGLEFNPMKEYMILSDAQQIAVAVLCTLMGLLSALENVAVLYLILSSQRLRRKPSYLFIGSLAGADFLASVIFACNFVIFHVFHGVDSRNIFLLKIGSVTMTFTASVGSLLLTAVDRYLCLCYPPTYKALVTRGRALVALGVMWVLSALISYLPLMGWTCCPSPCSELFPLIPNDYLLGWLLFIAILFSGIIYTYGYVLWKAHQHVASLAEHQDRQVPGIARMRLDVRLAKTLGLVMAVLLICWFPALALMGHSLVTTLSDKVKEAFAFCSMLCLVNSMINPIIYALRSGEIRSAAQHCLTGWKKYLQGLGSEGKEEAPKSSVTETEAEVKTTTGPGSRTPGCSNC
In words: rat CB2 radioligand binding assay ([3H]CP 55,940 competition). Also on record: expressed in transfected cells; host or cells: HEK293. Particulars: HEK293 membranes, 0.5 nM [3H]CP 55,940. The protocol: as §1
HEK293 cells stably expressing rat CB2 receptors were grown until a confluent monolayer was formed. Briefly, the cells were harvested and homogenized in TE buffer (50 mM Tris-HCl, 1 mM MgCl2, and 1 mM EDTA) using a polytron for 2×10 second bursts in the presence of protease inhibitors, followed by centrifugation at 45,000×g for 20 minutes. The final membrane pellet was re-homogenized in storage buffer (50 mM Tris-HCl, 1 mM MgCl2, and 1 mM EDTA and 10% sucrose) and frozen at −78° C. until used. Saturation binding reactions were initiated by the addition of membrane preparation (protein concentration of 20 μg/well for rat CB2) into wells of a deep well plate containing [^3H]CP 55,940 (120 Ci/mmol, a nonselective CB agonist commercially available from Tocris) in assay buffer (50 mM Tris, 2.5 mM EDTA, 5 mM MgCl2, and 0.5 mg/mL fatty acid free BSA, pH 7.4). After 45 min incubation at 30° C., binding reaction was terminated by the addition of […] of cold assay buffer followed by rapid vacuum filtration through a UniFilter-96 GF/C filter plates (pre-soaked in 1 mg/mL BSA for 2 hours). The bound activity was counted in a TopCount using Microscint-20. Saturation experiments were conducted with twelve concentrations of [^3H]CP 55,940 ranging from 0.01 to 8 nM. Competition experiments were conducted with 0.5 nM [^3H]CP 55,940 and five concentrations of displacing ligands selected from the range of 0.01 nM to 10 μM. The addition of 10 μM unlabeled CP 55,940 (Tocris, Ellisville, Mo.) was used to assess nonspecific binding.

T1 sequence (P34972 whole entry): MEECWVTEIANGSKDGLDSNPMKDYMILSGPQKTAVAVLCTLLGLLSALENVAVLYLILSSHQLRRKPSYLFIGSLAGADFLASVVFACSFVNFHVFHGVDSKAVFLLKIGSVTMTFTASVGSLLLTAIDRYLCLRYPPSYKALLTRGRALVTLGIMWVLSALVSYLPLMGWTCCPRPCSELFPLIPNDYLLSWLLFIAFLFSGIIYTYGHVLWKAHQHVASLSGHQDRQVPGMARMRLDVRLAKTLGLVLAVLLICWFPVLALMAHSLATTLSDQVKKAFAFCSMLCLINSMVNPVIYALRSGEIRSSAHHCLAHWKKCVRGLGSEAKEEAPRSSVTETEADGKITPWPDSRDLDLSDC

Turning to `CSCCCOc1ccc(C(F)(F)F)cc1C(=O)/N=c1\cc(C(C)(C)C)n(C)n1CC1CCC1` [Example 133, N-[(3E)-5-tert-butyl-2-(cyclobutylmethyl)-1-methyl-1,2-dihydro-3H-pyrazol-3-ylidene]-2-[3-(methylthio)propoxy]-5-(trifluoromethyl)benzamide], the Ki was 13 nM in test [1] (human CB2 (Ki, nM)) and 15 nM in test [2] (rat CB2 (Ki, nM)).

For `CC(C)(O)COc1ccc(C(F)(F)F)cc1C(=O)/N=c1\sc(C(C)(C)C)nn1CC1(C)COC1` [Example 97, N-[(2Z)-5-tert-butyl-3-[(3-methyloxetan-3-yl)methyl]-1,3,4-thiadiazol-2(3 H)-ylidene]-2-(2-hydroxy-2-methylpropoxy)-5-(trifluoromethyl)benzamide], the Ki in test [1] (human CB2 (Ki, nM)) is 31.6 nM; in test [2] (rat CB2 (Ki, nM)) it was 13 nM.

Consider `CCCCn1nc(C(C)(C)C)s/c1=N\C(=O)c1cc(C(F)(F)F)ccc1OCC(C)(C)O` [Example 84, N-[(2Z)-3-butyl-5-tert-butyl-1,3,4-thiadiazol-2(3H)-ylidene]-2-(2-hydroxy-2-methylpropoxy)-5-(trifluoromethyl)benzamide], for which the Ki turned out to be 1.8 nM in test [1] (human CB2 (Ki, nM)) and 1.5 nM in test [2] (rat CB2 (Ki, nM)).

Take `CCC(O)(CC)COc1ccc(C(F)(F)F)cc1C(=O)/N=c1\cc(C(C)(C)C)n(C)n1C[C@H]1CCCO1` [Example 117, N-{(3E)-5-tert-butyl-1-methyl-2-[(2R)-tetrahydrofuran-2-ylmethyl]-1,2-dihydro-3H-pyrazol-3-ylidene}-2-(2-ethyl-2-hydroxybutoxy)-5-(trifluoromethyl)benzamide]: the Ki was 83 nM in test [1] (human CB2 (Ki, nM)) and 69 nM in test [2] (rat CB2 (Ki, nM)).

For the compound `Cn1c(C(C)(C)C)c/c(=N\C(=O)c2cc(C(F)(F)F)ccc2OCCCS(C)(=O)=O)n1CC1CCC1` [Example 134, N-[(3E)-5-tert-butyl-2-(cyclobutylmethyl)-1-methyl-1,2-dihydro-3H-pyrazol-3-ylidene]-2-[3-(methylsulfonyl)propoxy]-5-(trifluoromethyl)benzamide], the inhibition constant Ki was found to be 22 nM in test [1] (human CB2 (Ki, nM)) and 40 nM in test [2] (rat CB2 (Ki, nM)).

With `CSC(C)(C)COc1ccc(C(F)(F)F)cc1C(=O)/N=c1\cc(C(C)(C)C)n(C)n1C[C@H]1CCCO1` [Example 64, N-{(3E)-5-tert-butyl-1-methyl-2-[(2R)-tetrahydrofuran-2-ylmethyl]-1,2-dihydro-3H-pyrazol-3-ylidene}-2-[2-methyl-2-(methylthio)propoxy]-5-(trifluoromethyl)benzamide], the results for the inhibition constant (Ki) in test [1] (read-out: human CB2 (Ki)) and in test [2] (read-out: rat CB2 (Ki)) were 328 nM and 114 nM, respectively.

Consider `CCCCn1oc(C(C)(C)C)c/c1=N\C(=O)c1cc(C(F)(F)F)ccc1OCC(C)(C)O` [Example 100, N-[(3E)-2-butyl-5-tert-butylisoxazol-3(2H)-ylidene]-2-(2-hydroxy-2-methylpropoxy)-5-(trifluoromethyl)benzamide], for which the Ki in test [1] (human CB2 (Ki, nM)) is 1.7 nM; in test [2] (rat CB2 (Ki, nM)), 1.3 nM.

For the compound `CC(C)[C@H](O)COc1ccc(C(F)(F)F)cc1C(=O)/N=c1\cc(C(C)(C)C)n(C)n1C[C@H]1CCCO1` [Example 111, N-{(3E)-5-tert-butyl-1-methyl-2-[(2R)-tetrahydrofuran-2-ylmethyl]-1,2-dihydro-3H-pyrazol-3-ylidene}-2-{[(2S)-2-hydroxy-3-methylbutyl]oxy}-5-(trifluoromethyl)benzamide], the inhibitory constant (Ki) in test [1] (human CB2 (Ki, nM)) is 1.8 nM; in test [2] (rat CB2 (Ki, nM)) it was 1 nM.

As to `C[C@H](O)COc1ccc(C(F)(F)F)cc1C(=O)/N=c1\cc(C(C)(C)C)n(C)n1C[C@H]1CCCO1` [Example 98, N-{(3E)-5-tert-butyl-1-methyl-2-[(2R)-tetrahydrofuran-2-ylmethyl]-1,2-dihydro-3 H-pyrazol-3-ylidene}-2-{[(2S)-2-hydroxypropyl]oxy}-5-(trifluoromethyl)benzamide], the inhibition constant (Ki) in test [1] (human CB2 (Ki, nM)) worked out at 4.6 nM; in test [2] (rat CB2 (Ki, nM)), 6.6 nM.

As for `CCCCn1/c(=N/C(=O)c2cc([N+](=O)[O-])ccc2OCC(C)(C)O)cc(C(C)(C)C)n1C` [Example 138, N-[(3E)-2-butyl-5-tert-butyl-1-methyl-1,2-dihydro-3H-pyrazol-3-ylidene]-2-(2-hydroxy-2-methylpropoxy)-5-nitrobenzamide], the Ki in test [1] (human CB2 (Ki, nM)) is 1.6 nM; in test [2] (rat CB2 (Ki, nM)) it was 19 nM.

Take `Cn1c(C(C)(C)C)c/c(=N\C(=O)c2cc(C(F)(F)F)ccc2OCC2CCSCC2)n1C[C@H]1CCCO1` [Example 80, N-{(3E)-5-tert-butyl-1-methyl-2-[(2R)-tetrahydrofuran-2-ylmethyl]-1,2-dihydro-3 H-pyrazol-3-ylidene}-2-(tetrahydro-2H-thiopyran-4-ylmethoxy)-5-(trifluoromethyl)benzamide]: the Ki in test [1] (read-out: human CB2 (Ki)) is 126 nM; in test [2] (rat CB2 (Ki, nM)) it was 75 nM.

For the compound `Cn1c(C(C)(C)C)c/c(=N\C(=O)c2cc(C(F)(F)F)ccc2OCCN2CCNC2=O)n1C[C@H]1CCCO1` [Example 48, N-{(3E)-5-tert-butyl-1-methyl-2-[(2R)-tetrahydrofuran-2-ylmethyl]-1,2-dihydro-3H-pyrazol-3-ylidene}-2-[2-(2-oxoimidazolidin-1-yl)ethoxy]-5-(trifluoromethyl)benzamide], the Ki in test [1] (read-out: human CB2 (Ki)) was determined as 251 nM; in test [2] (rat CB2 (Ki, nM)) it was 53 nM.

Regarding `Cn1c(C(C)(C)C)c/c(=N\C(=O)c2cc(C(F)(F)F)ccc2OCC(C)(C)S(C)(=O)=O)n1C[C@H]1CCCO1` [Example 65, N-{(3E)-5-tert-butyl-1-methyl-2-[(2R)-tetrahydrofuran-2-ylmethyl]-1,2-dihydro-3H-pyrazol-3-ylidene}-2-[2-methyl-2-(methylsulfonyl)propoxy]-5-(trifluoromethyl)benzamide], the Ki in test [1] (read-out: human CB2 (Ki)) and in test [2] (read-out: rat CB2 (Ki)) was greater than 1000 nM in each case.

On to `CC(C)c1c/c(=N\C(=O)c2cc(C(F)(F)F)ccc2OCC(C)(C)O)n(CC2CCCC2)n1C` [Example 114, N-[(3E)-2-(cyclopentylmethyl)-5-isopropyl-1-methyl-1,2-dihydro-3H-pyrazol-3-ylidene]-2-(2-hydroxy-2-methylpropoxy)-5-(trifluoromethyl)benzamide], for which the Ki in test [1] (read-out: human CB2 (Ki)) amounted to 129 nM; in test [2] (rat CB2 (Ki, nM)), 35 nM.

Take `C=C[C@H](O)COc1ccc(C(F)(F)F)cc1C(=O)/N=c1\cc(C(C)(C)C)n(C)n1C[C@H]1CCCO1` [Example 107, N-{(3E)-5-tert-butyl-1-methyl-2-[(2R)-tetrahydrofuran-2-ylmethyl]-1,2-dihydro-3 H-pyrazol-3-ylidene}-2-{[(2S)-2-hydroxybut-3-enyl]oxy}-5-(trifluoromethyl)benzamide]: the Ki worked out at 2.4 nM in test [1] (human CB2 (Ki, nM)) and 2.9 nM in test [2] (rat CB2 (Ki, nM)).

Turning to `CN(C[C@@H]1CCCO1)c1ccc(C(F)(F)F)cc1C(=O)/N=c1\cc(C(C)(C)C)n(C)n1C[C@H]1CCCO1` [Example 26, N-{(3E)-5-tert-butyl-1-methyl-2-[(2R)-tetrahydrofuran-2-ylmethyl-]-1,2-dihydro-3H-pyrazol-3-ylidene}-2-{methyl[(2S)-tetrahydrofuran-2-ylmethyl]amino}-5-(trifluoromethyl)benzamide], the Ki in test [1] (human CB2 (Ki, nM)) is greater than 1000 nM; in test [2] (rat CB2 (Ki, nM)), 343 nM.

The Ki is a measure of affinity in units of concentration, obtained from inhibition or displacement.
